Experimental data reported in patent US9351988B2, “Macrocyclic lactones and use thereof” (UNIVERSITE DE GENEVE, priority 2011, dated 2016).

Legend:
[1] = system: human primary colon cancer cells (CC36); experiment: BrdU incorporation proliferation assay in CC36 cells; type: cell-based; details: 48 h
Description: (§1) Human colon adenocarcinoma cell line (LS174T), human primary colon cancer cells (CC14) and primary metastatic cells (mCC11) were treated with Avermectin B1 (MicroSource Discovery systems, CT, USA), 5 μM. Control cells were treated with equivalent concentration of DMSO. 48 h after treatment, the percentage of BrdU incorporation was calculated for cells treated with Avermectin B1 as compared to control cells as follows: the number of BrdU positive cells over total number of cells expressed as percentage compared to control cells treated with DMSO only. Cells were cultivated in standard conditions (37° C., 5% CO2) in DMEM containing 10% Fetal Calf Serum.
The same assay as described in Example 1 was carried out on human primary colon cancer cells (CC14 and CC36) (TNM IV and III, respectively) and primary metastatic cells (mCC11) from the liver of the patient where cell samples were treated with Abamectin (Sigma #31732) at three different concentrations: 0.1, 1 and 5 μM. Control cells were treated with equivalent concentrations of DMSO. 48 h after treatment the level of BrdU incorporation was calculated for cells treated with each macrocyclic lactone as compared to control cells as described above. […]

[2] = system: primary metastatic cells (mCC11); experiment: BrdU incorporation proliferation assay in mCC11 cells; type: cell-based, human; details: 48 h
Description: as §1
(§2) The same assay as described in Example 1 was carried out on human primary colon cancer cells (CC14 and CC36) (TNM IV and III, respectively) and primary metastatic cells (mCC11) from the liver of the patient where cell samples were treated with Abamectin (Sigma #31732) at three different concentrations: 0.1, 1 and 5 μM. Control cells were treated with equivalent concentrations of DMSO. 48 h after treatment the level of BrdU incorporation was calculated for cells treated with each macrocyclic lactone as compared to control cells as described above.
(§3) The same assay as described in Example 1 was carried out on human primary colon cancer cells (CC14 and CC36) (TNM IV and III, respectively) and primary metastatic cells (mCC11) from the liver of the patient, on the human adenocarcinoma cell lines DLD1, LS174T, and SW180 and on human skin melanoma cell lines MeWo and SKMel2 where cell samples were treated with Ivermectin (Fabron Iberica S.A.U) or Stromectol™ (Merck & Co. Inc.) which is an oral pharmaceutical formulation of semisynthetic Ivermectin (mixture containing at least 90% 5-O-demethyl-22,23-dihydroavermectin A1a and less than 10% 5-O-demethyl-25-de(1-methylpropyl)-22,23-dihydro-25-(1-methylethyl)avermectin A1a, generally referred to as 22,23-dihydroavermectin B1a and B1b, or H2B1a and H2B1b) at different concentrations: 0.5, 1, 2.5, 5 and 10 μM (Ivermectin diluted in DMSO, Stromectol in Ethanol). […]

[3] = system: human primary colon cancer cells (CC14); experiment: BrdU incorporation proliferation assay in CC14 cells; type: cell-based; details: 48 h
Description: as §1, §2, §3

[4] = system: Human colon adenocarcinoma cell line (LS174T); experiment: BrdU incorporation proliferation assay in LS174T cells; type: cell-based; details: 48 h
Description: as §1
The same assay as described in Example 1 was carried out on human colon adenocarcinoma cell line LS174T where cell samples were either treated with Abamectin (Sigma #31732) or Doramectin (Sigma #33993) at three different concentrations: 0.1, 1 and 5 μM. Control cells were treated with equivalent concentration of DMSO. 48 h after treatment, the percentage of BrdU incorporation was calculated for cells treated with each macrocyclic lactone as compared to control cells as described above.
The same assay as described in Example 1 was carried out on human primary colon cancer cells (CC14 and CC36) (TNM IV and III, respectively) and primary metastatic cells (mCC11) from the liver of the patient, on the human adenocarcinoma cell lines DLD1, LS174T, and SW180 and on human skin melanoma cell lines MeWo and SKMel2 where cell samples were treated with Ivermectin (Fabron Iberica S.A.U) or Stromectol™ (Merck & Co. Inc.) which is an oral pharmaceutical formulation of semisynthetic Ivermectin (mixture containing at least 90% 5-O-demethyl-22,23-dihydroavermectin A1a and less than 10% 5-O-demethyl-25-de(1-methylpropyl)-22,23-dihydro-25-(1-methylethyl)avermectin A1a, generally referred to as 22,23-dihydroavermectin B1a and B1b, or H2B1a and H2B1b) at different concentrations: 0.5, 1, 2.5, 5 and 10 μM (Ivermectin diluted in DMSO, Stromectol in Ethanol). Control cells were treated with equivalent concentrations of DMSO. 48 h after treatment the level of BrdU incorporation was calculated for cells treated with each macrocyclic lactone as compared to control cells as described above. IC50 values are calculated by interpolation from a dose response curve fitted using PRISM (Graphpad Software).

[5] = system: human skin melanoma cell line SKMel2; experiment: BrdU incorporation proliferation assay in SKMel2 cells; type: cell-based; details: SKMel2, 0.5, 1, 2.5, 5 and 10 μM, 48 h
Description: as §1, with “Serum. […]” for “Serum.”

[6] = system: human adenocarcinoma cell line DLD1; experiment: BrdU incorporation proliferation assay in DLD1 cells; type: cell-based; details: DLD1, 0.5, 1, 2.5, 5 and 10 μM, 48 h
Description: as §1, with “Serum. […]” for “Serum.”

[7] = system: human glioblastoma cancer cell lines and cells from primary human glioblastoma tumors; experiment: BrdU incorporation proliferation assay in glioblastoma cells; type: cell-based; details: 48 h
[8] = system: human DLD1 CC cell xenografts; experiment: Mouse xenografts of human colon cancer (DLD1) cells; type: in vivo, nude NMRI mice; details: DLD1 xenografts in nude mice, 10 mg/kg; comparable to dnTCF4 (transgenic Wnt inhibition)
Description: Six- to eight-week-old female nude NMRI (Naval Medical Research Institute) mice each receive two injections of 10^5-10^6 human DLD1 CC cells on their backs as independent subcutaneous xenografts. As soon as the tumor is palpable (1-2 mm) (usually 7-10 days following xenograft), a range of concentrations of Ivermectin (Fabron Iberica S.A.U) or Abamectin (Sigma #31732) (0 (excipient only), 10, 50 and 100 mg/kg/day) is given by oral gavage combined with corn oil or is administered intra-peritoneally (IP) combined with 2-hydroxypropyl-β-cyclodextrin (Sigma, 45% solution) in a second set of experiments. Tumor size is periodically measured with a caliper. Mice are sacrificed before the tumors approach the legal size limit and the tumors are removed and analysed for proliferation (BrdU assay), apoptosis (Caspase3 assay, Varnat et al., 2009, EMBO Mol. Med., 1, 338-351) and invasion (Varnat et al., 2010, above). Control mice are treated with carrier-only control cells, or cells expressing a dominant-negative TCF4 construct (dnTCF4), which acts to actively repress Wnt-TCF signalling.

[9] = system: human skin melanoma cell line MeWo; experiment: BrdU incorporation proliferation assay in MeWo cells; type: cell-based; details: MeWo, 0.5, 1, 2.5, 5 and 10 μM, 48 h
Description: as §1, with “Serum. […]” for “Serum.”

[10] = system: human adenocarcinoma cell line SW180; experiment: BrdU incorporation proliferation assay in SW180 cells; type: cell-based; details: SW180, 0.5, 1, 2.5, 5 and 10 μM, 48 h
Description: as §1, with “Serum. […]” for “Serum.”

Wnt pathway = experiment: Key Wnt target gene expression by quantitative real time PCR in LS174 cells; type: cell-based, human; details: 12 h after 5 μM Avermectin B1 (vs DMSO) or dnTCF4 expression (vs control plasmid)
Description: Key Wnt target gene expression was determined by quantitative real time PCR in LS174 colon adenocarcinoma cell line expressing a dominant negative TCF4 cDNA (dnTCF4) or 12 h after treatment with 5 μM Avermectin B1 (MicroSource Discovery systems, CT, USA). Control cell samples were treated with equivalent concentrations of DMSO. Cells were cultivated in standard conditions as described in Example 1.
Expression levels of individual genes are shown as a percentage compared to their expression levels in control cells treated with DMSO only in the case of Avermectin B1, or transfected with control plasmid in the case of dnTCF4, and are shown in Table 1 below: […]

For Abamectin, the “proliferation (BrdU incorporation), dose-effect” value (“proliferation … dose-effect” below) ([1]; CC36, 0.1, 1 and 5 μM) was “decreases proliferation in a dose-dependent manner”, the “proliferation … dose-effect” value ([2]; mCC11, 0.1, 1 and 5 μM) was “decreases proliferation in a dose-dependent manner” and the “proliferation … dose-effect” value ([3]; CC14, 0.1, 1 and 5 μM) was “decreases proliferation in a dose-dependent manner”. For the same molecule, the “proliferation … dose-effect” value ([4]; LS174T, 0.1, 1 and 5 μM) was “decreases proliferation in a dose-dependent manner”.
In the case of `CO[C@H]1C[C@H](O[C@H]2[C@H](C)O[C@@H](O[C@@H]3/C(C)=C/C[C@@H]4C[C@@H](C[C@]5(C=C[C@H](C)[C@@H](C6CCCCC6)O5)O4)OC(=O)[C@@H]4C=C(C)[C@@H](O)[C@H]5OC/C(=C\C=C\[C@@H]3C)[C@]54O)C[C@@H]2OC)O[C@@H](C)[C@@H]1O` [Doramectin, 25-cyclohexyl-5-O-demethyl-25-de(1-methylpropyl)avermectin A1a], the “proliferation … dose-effect” value ([4]; LS174T, 0.1, 1 and 5 μM) is reported as “decreases proliferation in a dose-dependent manner”.
In the case of Ivermectin, the “proliferation … dose-effect” value [5] is reported as “decreases proliferation in a dose-dependent manner”, the “proliferation … dose-effect” value [6] is reported as “decreases proliferation in a dose-dependent manner” and the “proliferation … dose-effect” value [7] is reported as “decreases proliferation in a dose-dependent manner”. The “colon cancer xenograft growth” value [8] was “able to inhibit colon cancer xenograft growth”, the “proliferation … dose-effect” value ([1]; CC36, 0.5, 1, 2.5, 5 and 10 μM) was “decreases proliferation in a dose-dependent manner” and the “proliferation … dose-effect” value ([2]; mCC11, 0.5, 1, 2.5, 5 and 10 μM) was “decreases proliferation in a dose-dependent manner”. For the same molecule, the “proliferation … dose-effect” value ([3]; CC14, 0.5, 1, 2.5, 5 and 10 μM) was “decreases proliferation in a dose-dependent manner”, the “proliferation … dose-effect” value [9] was “decreases proliferation in a dose-dependent manner” and the “proliferation … dose-effect” value ([4]; LS174T, 0.5, 1, 2.5, 5 and 10 μM) was “decreases proliferation in a dose-dependent manner”. The “proliferation … dose-effect” value [10] was “decreases proliferation in a dose-dependent manner”.
For Avermectin B1, the “AXIN2 expression level as percentage compared to control cells” value (Wnt pathway) was 62%, the “C-MYC expression level as percentage compared to control cells” value (Wnt pathway) was 35% and the “EPHB2 expression level as percentage compared to control cells” value (Wnt pathway) was 78%. The “EPHB3 expression level as percentage compared to control cells” value (Wnt pathway) was 55%, the “EPNB1 expression level as percentage compared to control cells” value (Wnt pathway) was 277% and the “LGR5 expression level as percentage compared to control cells” value (Wnt pathway) was 3%. The “P21 expression level as percentage compared to control cells” value (Wnt pathway) was 635%, the “proliferation (percentage of BrdU incorporation compared to DMSO control)” value ([2]; mCC11, 5 μM) was “decreases to a minimum of half the proliferation” and the “proliferation (percentage of BrdU incorporation compared to DMSO control)” value ([3]; CC14, 5 μM) was “decreases to a minimum of half the proliferation”. For the same molecule, the “proliferation (percentage of BrdU incorporation compared to DMSO control)” value ([4]; LS174T, 5 μM) was “decreases to a minimum of half the proliferation”.
